According to patent publication US10294214B2, “Positive allosteric modulators of human melanocortin-4 receptor” (Vanderbilt University, priority 2016, dated 2019):
Entries after “also recorded” stand apart in the source; their conditions may differ. One block for each molecule: values may come before it.

How the values were obtained:
Y receptor = assay: Ussing chamber assay, PYY responses in mouse colon mucosa; conditions: PYY 10 nM; for Effect of antagonist on PYY responses: HS014 30 nM, 300 nM BIBO3304 plus 1 μM BIIE0246 in combination; for Effect on PYY responses: Example 3 at 200 nM or 1 μM
Method: (§1) FIGS. 2A-2I contain data on the characterization of hMC4R PAMs Examples 1, 2, and 3. FIGS. 2A, 2B, and 2C show structures of Examples 1-3, and the affect of Examples 1-3 on the α-MSH dose-response curve at the hMC4R, as determined using the Lance assay. Insets show the concentration-response effect as a function of the fold shift on the α-MSH concentration response curve. […] After α-MSH responses had waned all tissues received PYY (10 nM) to verify residual Y receptor anti-secretory activity. Basal Isc values are indicated to the left of each trace from an exposed area of 0.14 cm^2. Vertical arrows show the timepoint at which α-MSH Isc responses were recorded. […] Each value is the mean±1 SEM with n values in parentheses. ** P<0.01 using one-way ANOVA with Dunnett's post-test.
(§2) GI tissue from adult (12-20 week old) male C57BL/6J mice were dissected free of overlying smooth muscle and mucosae placed between 2 halves of Ussing chambers exposing an area of 0.14 cm^2. Mucosae were bathed both sides with Krebs-Henseleit (KH) buffer of following composition (in mM: 117 NaCl, 24.8 NaHCO3, 4.7 KCl, 1.2 MgSO4, 1.2 KH2PO4, 2.5 CaCl2 and 11.1 D-glucose) aerated with 95% O2/5% CO2 (pH 7.4) and voltage-clamped at 0 mV as described in detail previously (Cox et al., 2001; Cox and Tough, 2002). MC4R activity in mouse colonic epithelium was then characterized. Mouse mucosae were pretreated with vehicle or PAM compounds, then with secretagogue, VIP (10 nM, basolateral), and once elevated ISC had reached its peak and was declining at a constant rate, α-MSH was added to the basolateral reservoir to determine responses.
(§3) ISC responses in μA are expressed as the mean±SEM per unit area (cm2). Single comparisons (using GraphPad Prism) were performed using Student's unpaired t-test while multiple comparisons utilized 1-way ANOVA with Dunnett's post test and P≤0.05 were considered statistically significant.

native L cell MC4R = native L cell MC4R (Mus musculus (Mouse), UniProt P56450); assay: Ussing chamber assay, α-MSH inhibition of VIP-elevated Isc in mouse colon mucosa; conditions: for Effect of antagonist on α-MSH inhibition of Isc potentiated by 1 μM Example 3: HS014 30 nM, 300 nM BIBO3304 plus 1 μM BIIE0246 in combination; for Effect of antagonist on α-MSH inhibition of Isc potentiated by 1 μM Example 3 / α-MSH response (inhibition of Isc) after pretreatment: α-MSH 300 nM; for Effect of compound alone on basal Isc: basolateral, Example 3 at 200 nM or 1 μM, vs vehicle
native L cell MC4R, sequence (P56450 whole entry): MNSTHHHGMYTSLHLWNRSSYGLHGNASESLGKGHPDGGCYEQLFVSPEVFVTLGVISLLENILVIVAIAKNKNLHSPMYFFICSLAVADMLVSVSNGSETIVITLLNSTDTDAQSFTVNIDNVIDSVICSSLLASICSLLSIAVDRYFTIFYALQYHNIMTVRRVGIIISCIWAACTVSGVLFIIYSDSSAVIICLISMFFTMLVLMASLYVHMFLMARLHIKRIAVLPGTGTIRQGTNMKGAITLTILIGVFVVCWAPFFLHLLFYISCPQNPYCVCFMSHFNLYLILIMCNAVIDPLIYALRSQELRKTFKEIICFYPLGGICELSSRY
Method: as §1, §2, §3

hMC4R [1] = target: T1, hMC4R (Homo sapiens (Human), UniProt P32245); assay: LANCE cAMP assay, hMC4R PAM; type: cell-based; conditions: for hMC4R PAM LANCE pEC50 Mean: HEK293 cells stably expressing the hMC4R, α-MSH at an EC20 dose; for Emax: read-out: % of αMSH maximal response
T1 sequence (P32245 whole entry): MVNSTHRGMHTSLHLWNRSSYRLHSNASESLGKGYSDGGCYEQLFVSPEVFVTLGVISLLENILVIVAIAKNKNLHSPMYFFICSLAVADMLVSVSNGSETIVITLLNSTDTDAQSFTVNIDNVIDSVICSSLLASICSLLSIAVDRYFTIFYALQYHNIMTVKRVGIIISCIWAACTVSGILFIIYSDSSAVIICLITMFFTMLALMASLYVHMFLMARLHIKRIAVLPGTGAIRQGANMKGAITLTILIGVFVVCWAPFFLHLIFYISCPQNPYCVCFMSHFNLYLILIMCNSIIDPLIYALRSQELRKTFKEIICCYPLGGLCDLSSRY
Method: Analysis of pharmacological properties of compounds was performed using the LANCE cAMP kit (Perkin Elmer). HEK293 cells stably expressing the hMC4R were treated with PAM compounds at doses indicated, then incubated with an Alexa Fluor 647-labeled antibody in stimulation buffer according to manufacturer's instructions for 30 min at RT. Next, α-MSH was added (at an EC20 dose or at doses indicated for concentration-response curves), and plates were incubated for 15 minutes at RT, followed by the addition of 10 μL of detection mix. Plates were then incubated for 30 minutes at RT and read on a Viewlux (Perkin Elmer) using 618 and 671 nm emission filters. IBMX was not included in the assay.

C57BL/6 mice = assay: Inhibition of fast-induced refeeding in the mouse; type: in vivo; conditions: single i.p. dose 5 mg/kg; overnight fasted mice; food intake after two and six hours
Method: FIG. 4 contains data from assays of inhibition of food intake in the mouse by MC4R PAM Example 3. Nine to ten week old C57BL/6 mice were fasted overnight (15 to 17 hours) and re-feeding was monitored the following day after a single i.p. dose of Example 3 (5 mg/kg) or vehicle (10% Tween 80, 5% DMSO v/v). Normalized food intake (food consumed in grams per 100 grams of body weight) per treatment group is shown in the top graphs after two hours (top left) and six hours (top right) of onset of re-feeding phase. Body weight changes for two and six hours are shown in the bottom left and right panels respectively. p values are noted on each graph and were determined by unpaired t tests. Significance was set to p values <0.05.

[2] = target: human β2-adrenergic receptor (Homo sapiens (Human), UniProt P07550); assay: pGLO cAMP assay, counterscreen; type: cell-based; conditions: Isop EC20
human β2-adrenergic receptor, sequence (P07550 whole entry): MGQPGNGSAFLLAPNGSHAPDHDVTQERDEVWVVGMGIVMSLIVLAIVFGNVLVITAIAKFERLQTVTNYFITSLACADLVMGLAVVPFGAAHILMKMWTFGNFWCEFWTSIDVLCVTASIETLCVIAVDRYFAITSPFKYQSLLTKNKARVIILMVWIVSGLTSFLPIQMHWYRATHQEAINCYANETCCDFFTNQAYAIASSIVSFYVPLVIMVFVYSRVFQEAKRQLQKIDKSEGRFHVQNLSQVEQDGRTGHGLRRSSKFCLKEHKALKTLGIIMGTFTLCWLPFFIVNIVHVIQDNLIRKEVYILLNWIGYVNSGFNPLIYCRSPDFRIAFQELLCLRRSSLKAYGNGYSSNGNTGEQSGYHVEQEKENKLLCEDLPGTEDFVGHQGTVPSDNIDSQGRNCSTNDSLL
Method: (§4) Drug screening for identification of hits and initial characterization of MC4R PAM compounds were performed using the pGLO assay, as described previously (Pantel J, et al., (2011) Development of a high throughput screen for allosteric modulators of melanocortin-4 receptor signaling using a real time cAMP assay. Eur J Pharmacol 660:139-147. HEK293 cells stably expressing the hMC4R or the hB2ADR with GloSensor (Promega) were plated at a density of 10,000 to 15,000 cells per well on Poly-D-Lysin coated black optical bottom 384 well plates in MEM supplemented with 2% serum. The next day, cells were loaded with the cAMP Glo reagent at a 2% concentration in CO2-independent media for 2 hours at 37° C. […]
(§5) HEK293 cells stably expressing the hMC4R or the β-adrenergic receptor with the p-Promega pGlo luciferase cAMP reporter were plated at a density of 10,000 to 15,000 cells per well on Poly-D-Lysin coated black optical bottom 384 well plates in MEM supplemented with 2% serum. The next day, cells were loaded with the p-Glo substrate at a 2% concentration in CO2-independent media for 2 hours at 37° C. cAMP concentration in cells were measured as a function of luminescence over time using a Hamamatsu FDSS 6000 plate reader. Basal luminescence were measured for 5 minutes followed by injection of 1 μM of the library compounds. […]

hMC4R [3] = target: T1, hMC4R; assay: pGLO cAMP assay, PAM HTS primary screen; type: cell-based; conditions: 1 μM of library compound
Method: as §4, §5

SMILES: COC(=O)c1[nH]c2ccccc2c1NC(=O)CN1CCC(C2CCCCC2)CC1 [Example 3, methyl 3-(2-(4-cyclohexylpiperidin-1-yl)acetamido)-1H-indole-2-carboxylate]
hMC4R PAM LANCE pEC50 Mean (hMC4R [1]): 6.7
pEC50 (hMC4R [1]; in vitro characterisation): 6.7
Emax (hMC4R [1]; in vitro characterisation): 102%
Anorexigenic activity, fast-induced refeeding (C57BL/6 mice): small, but statistically significant anorexigenic activity
Effect on PYY responses (Y receptor): did not modulate the activity of PYY; also recorded: unaffected
α-MSH response (inhibition of Isc) after pretreatment (native L cell MC4R; 1 μM pretreatment, vs vehicle controls): significantly increased; also recorded: significantly potentiated
Effect of compound alone on basal Isc (native L cell MC4R): no activity on its own; also recorded: not significantly different from vehicle
MC4R PAM activity on α-MSH induced, PYY mediated short circuit current inhibition (native L cell MC4R; mouse colonic epithelium): nearly tripled the activity of α-MSH
EC50 (native L cell MC4R; mouse colonic epithelium, read-out: EC50 for potentiation of α-MSH induced short circuit current inhibition): ~200 nM

SMILES: O=C(CN1CCC2(CCCC2)CC1)Nc1c(C(=O)C2CC2)[nH]c2ccccc12 [Example 2, N-(2-(cyclopropanecarbonyl)-1H-indol-3-yl)-2-(8-azaspiro[4.5]decan-8-yl)acetamide]
hMC4R PAM LANCE pEC50 Mean (hMC4R [1]): 6.3
pEC50 (hMC4R [1]; in vitro characterisation): 6.3
Emax (hMC4R [1]; in vitro characterisation): 80%
Effect on PYY responses (Y receptor): unaffected
α-MSH response (inhibition of Isc) after pretreatment (native L cell MC4R; 3 μM pretreatment): potentiated significantly
Effect of compound alone on basal Isc (native L cell MC4R): not significantly different to vehicle controls
MC4R PAM activity on α-MSH induced, PYY mediated short circuit current inhibition (native L cell MC4R; mouse colonic epithelium): exhibited MC4R PAM activity

SMILES: CC(=O)c1[nH]c2ccccc2c1NC(=O)CN1CCC(Cc2ccccc2)CC1 [Example 18]
hMC4R PAM LANCE pEC50 Mean (hMC4R [1]): 6.1

SMILES: COC(=O)c1[nH]c2ccc(Br)cc2c1NC(=O)CN1CCN(C(c2ccccc2)c2ccccc2)CC1 [Example 47]
hMC4R PAM LANCE pEC50 Mean (hMC4R [1]): 6.2

SMILES: CC(C)(C)C1CCN(CC(=O)Nc2c(C(=O)C3CC3)[nH]c3ccccc23)CC1 [Example 1, 2-(4-(tert-butyl)piperidin-1-yl)-N-(2-(cyclopropanecarbonyl)-1H-indol-3-yl)acetamide]
hMC4R PAM LANCE pEC50 Mean (hMC4R [1]): 6.2
EC50 (hMC4R [1]; in vitro characterisation): 398 nM
Emax (hMC4R [1]; in vitro characterisation): 83%
Effect on PYY responses (Y receptor): unaffected
α-MSH response (inhibition of Isc) after pretreatment (native L cell MC4R; 10 μM pretreatment): potentiated significantly
Effect of compound alone on basal Isc (native L cell MC4R): not significantly different to vehicle controls
MC4R PAM activity on α-MSH induced, PYY mediated short circuit current inhibition (native L cell MC4R; mouse colonic epithelium): exhibited MC4R PAM activity

SMILES: CC(=O)c1[nH]c2ccncc2c1NC(=O)CN1CCC(C2CCCC2)CC1 [Example 64]
hMC4R PAM LANCE pEC50 Mean (hMC4R [1]): 6.6

SMILES: COC(=O)c1[nH]c2ccccc2c1NC(=O)CN1CCC(Nc2ccccc2)CC1 [Example 55]
hMC4R PAM LANCE pEC50 Mean (hMC4R [1]): 5.8

SMILES: CC1(C)CCCN(CC(=O)Nc2c(C(=O)C3CC3)[nH]c3ccc(Br)cc23)C1 [Example 7]
hMC4R PAM LANCE pEC50 Mean (hMC4R [1]): 6.4

Continued, in another order:

Effect of antagonist on PYY responses (Y receptor): predictably abolished
Effect of antagonist on α-MSH inhibition of Isc potentiated by 1 μM Example 3 (native L cell MC4R): abolished
SMILES: NC(=O)NCc1ccc(CNC(=O)[C@@H](CCCN=C(N)N)NC(=O)C(c2ccccc2)c2ccccc2)cc1 [BIBO3304, reference compound]

Effect of antagonist on PYY responses (Y receptor): predictably abolished
Effect of antagonist on α-MSH inhibition of Isc potentiated by 1 μM Example 3 (native L cell MC4R): abolished
SMILES: N=C(N)NCCC[C@H](NC(=O)CC1(CC(=O)N2CCN(C3c4ccccc4NC(=O)c4ccccc43)CC2)CCCC1)C(=O)NCCn1c(=O)n(-c2ccccc2)n(-c2ccccc2)c1=O (stereo partly shown) [BIIE0246, reference compound]

Effect on hMC4R signaling (cAMP) with α-MSH EC20 (hMC4R [3]): enhanced hMC4R signaling
SMILES: COc1cc(-c2nc(NCc3ccco3)c3ccccc3n2)cc(OC)c1OC [VUO127431, N-(furan-2-ylmethyl)-2-(3,4,5-trimethoxyphenyl)quinazolin-4-amine]
Effect on β2-adrenergic-receptor signaling (cAMP) [2]: no significant effect on β2-adrenergic-receptor signaling
